#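 Dose response: 5 concentrations. Exposure: 48 h. Format: 96-well plates. Endpoint: linear interpolation; highest concentration if not reached. At the GI50, growth is halved.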 Calls of active or inactive are those of the source. Cut-off read from the data, not from the text of the source: active = GI50 up to about 1.1 µM and inactive = higher. Where a SMILES comes first, the peptide text is derived from it. The star is where a group is joined. Boc = CC(C)(C)OC(=O)*
# Tests used:
# Assay in all cases: growth of human tumour cells (NCI), 48 h
# BT-549 = system: BT-549
# XF498 = system: XF498
# LXFL 529 = system: LXFL 529
# KM-20L2 = system: KM-20L2
# SNB-78 = system: SNB-78
# DMS-273 = system: DMS-273
# DLD-1 = system: DLD-1
# HOP-18 = system: HOP-18
# RXF 631 = system: RXF 631
SMILES,GI50 (BT-549),GI50 (XF498),GI50 (LXFL 529),GI50 (KM-20L2),GI50 (SNB-78),GI50 (DMS-273),GI50 (DLD-1),further results
C(CCCCc1nnc(N2CCOCC2)o1)CCCc1nnc(N2CCOCC2)o1,> 100 µM (inactive),–,–,–,–,–,–,–
COc1cc(OC)c2c(=O)c(O)c(-c3ccc(OC)c(OC)c3)oc2c1,0.755 µM (active),–,–,–,–,–,–,–
COc1cc(C2SCC(=O)N2c2cccc(Cl)c2)cc(OC)c1OC (stereo unspecified),26.4 µM (inactive),–,–,–,–,–,–,–
CCCCCCCCCCCCn1c(=O)cc(NCCCC)c2cc3c(NCCCC)cc(=O)n(CCCCCCCCCCCC)c3nc21,> 100 µM (inactive),–,–,–,–,–,–,–
CC[C@H](C)[C@H]1NC(=O)[C@@H](NC(=O)[C@@H](CC(C)C)N(C)C(=O)C2CCCN2C(=O)[C@H](C)O)[C@@H](C)OC(=O)[C@H](Cc2ccccc2)N(C)C(=O)[C@@H]2CCCN2C(=O)[C@H](CC(C)C)NC(=O)[C@@H](C)C(=O)[C@H](C(C)C)OC(=O)C[C@@H]1O (stereo partly specified),< 0.00625 µM (active),–,–,–,–,–,–,–
CCCCNc1nc(O)c2[nH]cnc2n1,> 100 µM (inactive),–,–,–,–,–,–,–
CC(C)[Si](OCC/C=C/C1CCC(=O)C1C(O)C1CCCCC1)(C(C)C)C(C)C (stereo unspecified),18.9 µM (inactive),–,–,–,–,–,–,–
COc1ccccc1-c1cc(O)c2ccc(C)nc2n1,> 100 µM (inactive),–,–,–,–,–,–,–
COC(=O)C1[C@H](c2ccc3c(c2)OCO3)OC(=O)[C@]1(C(=O)OC)C(=O)c1ccc(OC)c(OC)c1 (stereo partly specified),–,81.8 µM (inactive),41.5 µM (inactive),56 µM (inactive),56.8 µM (inactive),25.1 µM (inactive),17.4 µM (inactive),GI50 (HOP-18): > 100 µM (inactive)
Cc1c2c(n3c(nc4ccccc43)c1C#N)N(c1ccc(F)cc1)CC2,> 100 µM (inactive),–,–,–,–,–,–,–
COc1ccc(OC)c2c(=S)c3ccccc3[nH]c12,> 100 µM (inactive),> 100 µM (inactive),56 µM (inactive),> 100 µM (inactive),–,> 82.8 µM (inactive),> 100 µM (inactive),GI50 (RXF 631): 41.5 µM (inactive)
Cc1ccc(NC(=O)CC2Sc3ccccc3NC2=O)cc1C (stereo unspecified),–,> 100 µM (inactive),49 µM (inactive),> 100 µM (inactive),> 100 µM (inactive),85.7 µM (inactive),> 100 µM (inactive),GI50 (HOP-18): > 100 µM (inactive)
O=C(/C(=C(/Br)I)c1ccccc1)c1ccccc1,22.9 µM (inactive),–,–,–,–,–,–,–
O/N=C1\CC2(N3CCOCC3)CCC1(c1ccccc1)CC2,> 100 µM (inactive),–,–,–,–,–,–,–
OC12c3ccccc3C1CCCCCCCCCC21OCCCO1 (stereo unspecified),–,> 100 µM (inactive),> 100 µM (inactive),–,> 100 µM (inactive),> 100 µM (inactive),> 100 µM (inactive),GI50 (HOP-18): > 100 µM (inactive)
CC(=O)Nc1ccc(-c2nnc(SCC(=O)Nc3cccc([N+](=O)[O-])c3)o2)cc1,–,–,2.99 µM (inactive),17.8 µM (inactive),18 µM (inactive),10.9 µM (inactive),12.8 µM (inactive),GI50 (HOP-18): 21.1 µM (inactive)
Nc1c(Cl)ncnc1NCCCNc1ncnc(Cl)c1N,–,> 100 µM (inactive),> 100 µM (inactive),> 100 µM (inactive),> 100 µM (inactive),> 100 µM (inactive),> 100 µM (inactive),GI50 (HOP-18): > 100 µM (inactive)
CC(C)C1CC(O)O[C@@H]([C@@H](C)[C@H]2CC(=O)[C@@H]3[C@@H]4[C@@H](O)[C@H](O)[C@H]5[C@@H](O)[C@H](O)CC[C@]5(C)[C@H]4CC[C@]23C)C1 (stereo partly specified),–,18.9 µM (inactive),> 100 µM (inactive),> 100 µM (inactive),38.9 µM (inactive),39.8 µM (inactive),> 100 µM (inactive),–
O=C(Nc1sccc1S(=O)(=O)c1ccc(Cl)cc1)c1ccccc1,> 100 µM (inactive),–,–,–,–,–,–,–
O=C1NC(=O)C2C(=O)NC(=O)C1C2Cc1ccco1 (stereo unspecified),–,> 100 µM (inactive),–,> 100 µM (inactive),> 100 µM (inactive),> 100 µM (inactive),> 100 µM (inactive),–
Cc1nc(N)nc(N)c1CCCc1ccccc1,–,35.7 µM (inactive),8.05 µM (inactive),7.31 µM (inactive),32.1 µM (inactive),–,12.1 µM (inactive),–
CCCCCCC(C)CC(CCCCCC)NCCOC(=O)c1ccc([N+](=O)[O-])cc1 (stereo unspecified),16.4 µM (inactive),–,–,–,–,–,–,–
Cc1nnc2n1N=C(c1cc(F)c(Cl)cc1Cl)/C(=C/c1ccc(-c3ccc([N+](=O)[O-])cc3)o1)S2,58.2 µM (inactive),–,–,–,–,–,–,–
CN(C)c1ccc(/C=N/c2nc3cc4sc(/N=C/c5ccc(N(C)C)cc5)nc4cc3s2)cc1,71 µM (inactive),–,–,–,–,–,–,–
COc1cc(CNc2ccc(C(C)C)cc2)cc(OC)c1OC,–,32.3 µM (inactive),18.9 µM (inactive),16.8 µM (inactive),35.1 µM (inactive),–,24 µM (inactive),GI50 (HOP-18): 34.1 µM (inactive)
CC(C)(C)OC(=O)NC(Cc1ccc(OCc2ccccc2)cn1)C(N)=O (stereo unspecified),> 100 µM (inactive),–,–,–,–,–,–,–
Cc1ccc(S(=O)(=O)OC2CSSCC2OS(=O)(=O)c2ccc(C)cc2)cc1 (stereo unspecified),–,–,11.4 µM (inactive),14 µM (inactive),20 µM (inactive),10.1 µM (inactive),11 µM (inactive),GI50 (RXF 631): 13.6 µM (inactive); GI50 (HOP-18): 17.4 µM (inactive)
COC(=O)C(Cc1c[nH]c2ccccc12)NC(=O)C(Cc1c[nH]c2ccccc12)NC(=O)C(Cc1c[nH]c2ccccc12)NC(=O)C(Cc1c[nH]c2ccccc12)NC(=O)C(Cc1c[nH]c2ccccc12)NC(=O)C(Cc1c[nH]c2ccccc12)NC(=O)C(Cc1c[nH]c2ccccc12)NC(=O)OC(C)(C)C (stereo unspecified) (Boc-WWWWWWW-OMe; configuration not given here),> 100 µM (inactive),–,–,–,–,–,–,–
